Experimental data reported in PMC10141580, “Cyclic Dichalcogenides Extend the Reach of Bioreductive Prodrugs to Harness Thiol/Disulfide Oxidoreductases: Applications to seco-Duocarmycins Targeting the Thioredoxin System” (ACS Central Science, 2023).
Where “and” joins values, the source holds several entries; their conditions need not be identical. Identical values can stand only once. Like-named read-outs stand apart in the source and are kept apart here.

Tested on: panel of 140 standard cancer cell lines
Test: ProliFiler-140 cancer cell line screen (CellTiterGlo, 72 h)
Format: cell-based
Experimental: Incubations were performed for 72 h before automated viability readout with CellTiterGlo (Figure 8).
End of Figure S11 (part 5 of 5): ProliFiler-140 cancer cell line screening for cytotoxicity of the prodrugs.
8-data-point dose response curves from CellTiter-Glo® viability readout.
ProliFiler-140 cell line panel part V

COc1cc2cc(C(=O)N3C[C@@H](CCl)c4c3cc(OC(=O)N(CCC(=O)N3CCN(C)CC3)[C@H]3CCSSC3)c3ccccc43)[nH]c2c(OC)c1OC [P-SS60-CBI-TMI]
Reductive Activation Index (MKN-1 (Stomach)): 7.3
IC50 (MKN-1 (Stomach), read-out: IC50 [M] (ProliFiler-140)): 2.1e-07 M
Reductive Activation Index (MKN-45 (Stomach)): 5.36
IC50 (MKN-45 (Stomach), read-out: IC50 [M] (ProliFiler-140)): 9.08e-08 M and 9.1e-08 M
IC50 (MOLM-13 (Blood), read-out: IC50 [M] (ProliFiler-140)): 9.1e-09 M and 9.12e-09 M
IC50 (MOLT-4 (Blood), read-out: IC50 [M] (ProliFiler-140)): 1.3e-08 M and 1.29e-08 M
IC50 (MOLT-4, read-out: IC50): 1.3e-08 M
IC50 (MV4-11 (Blood), read-out: IC50 [M] (ProliFiler-140)): 2.8e-09 M and 2.76e-09 M
Reductive Activation Index (Mia PaCA 2 (Pancreas)): 5.48
IC50 (Mia PaCA 2 (Pancreas), read-out: IC50 [M] (ProliFiler-140)): 6.84e-08 M and 6.8e-08 M
Reductive Activation Index (NALM-6 (Blood)): 5.7
IC50 (NALM-6 (Blood), read-out: IC50 [M] (ProliFiler-140)): 9.79e-09 M and 9.8e-09 M
Reductive Activation Index (NCI-H82 (Lung)): 5.0
IC50 (NCI-H82 (Lung), read-out: IC50 [M] (ProliFiler-140)): 1.5e-07 M and 1.49e-07 M
IC50 (NCI-H292 (Lung), read-out: IC50 [M] (ProliFiler-140)): 4.8e-08 M and 4.84e-08 M
Reductive Activation Index (NCI-H441 (Lung)): 5.40
IC50 (NCI-H441 (Lung), read-out: IC50 [M] (ProliFiler-140)): 5.44e-08 M and 5.4e-08 M
Reductive Activation Index (NCI-H838 (Lung)): 6.2
IC50 (NCI-H838 (Lung), read-out: IC50 [M] (ProliFiler-140)): 1.2e-07 M and 1.21e-07 M
Reductive Activation Index (NCI-H1048 (Lung)): 7.4
IC50 (NCI-H1048 (Lung), read-out: IC50 [M] (ProliFiler-140)): 8e-09 M and 8.01e-09 M
IC50 (NCI-H1437 (Lung), read-out: IC50 [M] (ProliFiler-140)): 5.21e-08 M and 5.2e-08 M
Reductive Activation Index (NCI-H1563 (Lung)): 8.6
IC50 (NCI-H1563 (Lung), read-out: IC50 [M] (ProliFiler-140)): 2e-07 M and 1.97e-07 M
Reductive Activation Index (NCI-H1573 (Lung)): 6.1
IC50 (NCI-H1573 (Lung), read-out: IC50 [M] (ProliFiler-140)): 1.8e-07 M and 1.76e-07 M
IC50 (NCI-H1581 (Lung), read-out: IC50 [M] (ProliFiler-140)): 4.23e-08 M and 4.2e-08 M
Reductive Activation Index (NCI-H1703 (Lung)): 6.7
IC50 (NCI-H1703 (Lung), read-out: IC50 [M] (ProliFiler-140)): 1.2e-07 M and 1.21e-07 M
Reductive Activation Index (NCI-H1838 (Lung)): 9.6
IC50 (NCI-H1838 (Lung), read-out: IC50 [M] (ProliFiler-140)): 8.5e-08 M and 8.53e-08 M
IC50 (NCI-H2009 (Lung), read-out: IC50 [M] (ProliFiler-140)): 6.17e-08 M and 6.2e-08 M
IC50 (NCI-H2110 (Lung), read-out: IC50 [M] (ProliFiler-140)): 2.7e-08 M and 2.67e-08 M
IC50 (NCI-H2286 (Lung), read-out: IC50 [M] (ProliFiler-140)): 1.9e-08 M and 1.91e-08 M
Reductive Activation Index (NCI-N87 (Stomach)): 8.1
IC50 (NCI-N87 (Stomach), read-out: IC50 [M] (ProliFiler-140)): 1.4e-07 M and 1.41e-07 M
IC50 (OCI-AML3 (Blood), read-out: IC50 [M] (ProliFiler-140)): 3.3e-08 M and 3.29e-08 M
Reductive Activation Index (OCI-AML5 (Blood)): 3.9 and 3.93
IC50 (OCI-AML5 (Blood), read-out: IC50 [M] (ProliFiler-140)): 8.6e-09 M and 8.62e-09 M
Reductive Activation Index (OCI-LY19 (Blood)): 3.74
IC50 (OCI-LY19 (Blood), read-out: IC50 [M] (ProliFiler-140)): 4.11e-09 M and 4.1e-09 M
Reductive Activation Index (OPM-2 (Blood)): 5.41
IC50 (OPM-2 (Blood), read-out: IC50 [M] (ProliFiler-140)): 1.22e-07 M and 1.2e-07 M
Reductive Activation Index (OV56 (Ovary)): 3.10
IC50 (OV56 (Ovary), read-out: IC50 [M] (ProliFiler-140)): 6.51e-08 M and 6.5e-08 M
Reductive Activation Index (OVCAR-3 (Ovary)): 8.7
IC50 (OVCAR-3 (Ovary), read-out: IC50 [M] (ProliFiler-140)): 1.2e-07 M and 1.17e-07 M
IC50 (OVCAR-3, read-out: IC50): 1.2e-07 M
Reductive Activation Index (OVK18 (Ovary)): 4.66
IC50 (OVK18 (Ovary), read-out: IC50 [M] (ProliFiler-140)): 4.29e-08 M and 4.3e-08 M
IC50 (P31/FUJ (Blood), read-out: IC50 [M] (ProliFiler-140)): 3.7e-08 M and 3.66e-08 M
Reductive Activation Index (PANC-1 (Pancreas)): 5.4
IC50 (PANC-1 (Pancreas), read-out: IC50 [M] (ProliFiler-140)): 2.5e-07 M and 2.53e-07 M
IC50 (PC3 (Prostate), read-out: IC50 [M] (ProliFiler-140)): 5.8e-08 M
IC50 (PC3, read-out: IC50): 5.8e-08 M
IC50 (PC-9 (Lung), read-out: IC50 [M] (ProliFiler-140)): 1.7e-08 M
Reductive Activation Index (RERF-LC-Ad2 (Lung)): 4.2 and 4.21
IC50 (RERF-LC-Ad2 (Lung), read-out: IC50 [M] (ProliFiler-140)): 1.9e-07 M and 1.86e-07 M
IC50 (RERF-LC-MS (Lung), read-out: IC50 [M] (ProliFiler-140)): 6.44e-08 M and 6.4e-08 M
IC50 (RKO (Colon), read-out: IC50 [M] (ProliFiler-140)): 4.51e-08 M and 4.5e-08 M
Reductive Activation Index (RL95-2 (Endometrium)): 4.84
IC50 (RL95-2 (Endometrium), read-out: IC50 [M] (ProliFiler-140)): 1.54e-07 M and 1.5e-07 M
IC50 (RPMI 8226 (Blood), read-out: IC50 [M] (ProliFiler-140)): 3.86e-08 M and 3.9e-08 M
IC50 (RPMI 8226, read-out: IC50): 3.9e-08 M
IC50 (SCH (Stomach), read-out: IC50 [M] (ProliFiler-140)): 5.2e-08 M and 5.16e-08 M
Reductive Activation Index (SCLC-21H (Lung)): 4.91
IC50 (SCLC-21H (Lung), read-out: IC50 [M] (ProliFiler-140)): 3.21e-08 M and 3.2e-08 M
Reductive Activation Index (SJSA-1 (Bone)): 15.99
IC50 (SJSA-1 (Bone), read-out: IC50 [M] (ProliFiler-140)): 2.37e-08 M and 2.4e-08 M
IC50 (SK-BR-3 (Breast), read-out: IC50 [M] (ProliFiler-140)): 7.4e-08 M and 7.39e-08 M
IC50 (SK-ES-1 (Bone), read-out: IC50 [M] (ProliFiler-140)): 5.66e-09 M and 5.7e-09 M
IC50 (SK-LU-1 (Lung), read-out: IC50 [M] (ProliFiler-140)): 2.7e-08 M
Reductive Activation Index (SK-MEL-3 (Skin)): 5.8
IC50 (SK-MEL-3 (Skin), read-out: IC50 [M] (ProliFiler-140)): 1.8e-07 M and 1.77e-07 M
Reductive Activation Index (SK-N-FI (Brain)): 5.68
IC50 (SK-N-FI (Brain), read-out: IC50 [M] (ProliFiler-140)): 1.2e-07 M
IC50 (SK-N-MC (Brain), read-out: IC50 [M] (ProliFiler-140)): 2.7e-09 M
Reductive Activation Index (SK-N-SH (Brain)): 5.1 and 5.09
IC50 (SK-N-SH (Brain), read-out: IC50 [M] (ProliFiler-140)): 1.5e-07 M and 1.46e-07 M
IC50 (SK-OV3 (Ovary), read-out: IC50 [M] (ProliFiler-140)): 6.17e-08 M and 6.2e-08 M
IC50 (SK-OV3, read-out: IC50): 6.2e-08 M
Reductive Activation Index (SNU840 (Ovary)): 1.83
IC50 (SNU840 (Ovary), read-out: IC50 [M] (ProliFiler-140)): 3.82e-08 M and 3.8e-08 M
IC50 (SNU-1 (Stomach), read-out: IC50 [M] (ProliFiler-140)): 3e-08 M
IC50 (SNU-16 (Stomach), read-out: IC50 [M] (ProliFiler-140)): 1.23e-07 M and 1.2e-07 M
Reductive Activation Index (SNU-216 (Stomach)): 6.77 and 6.8
IC50 (SNU-216 (Stomach), read-out: IC50 [M] (ProliFiler-140)): 2.72e-07 M and 2.7e-07 M
Reductive Activation Index (SU-DHL-5 (Blood)): 6.4
IC50 (SU-DHL-5 (Blood), read-out: IC50 [M] (ProliFiler-140)): 7.8e-09 M and 7.78e-09 M
Reductive Activation Index (SW480 (Colon)): 5.10
IC50 (SW480 (Colon), read-out: IC50 [M] (ProliFiler-140)): 6.5e-08 M
Reductive Activation Index (SW620 (Colon)): 5.01
IC50 (SW620 (Colon), read-out: IC50 [M] (ProliFiler-140)): 1.4e-07 M
IC50 (SW620, read-out: IC50): 1.4e-07 M
Reductive Activation Index (SW948 (Colon)): 5.26
IC50 (SW948 (Colon), read-out: IC50 [M] (ProliFiler-140)): 1.29e-07 M and 1.3e-07 M
IC50 (SW-1783 (Brain), read-out: IC50 [M] (ProliFiler-140)): 6.68e-08 M and 6.7e-08 M
Reductive Activation Index (Saos-2 EC (Bone)): 6.02
IC50 (Saos-2 EC (Bone), read-out: IC50 [M] (ProliFiler-140)): 3.88e-08 M and 3.9e-08 M
Reductive Activation Index (SiHa (Ovary)): 5.51
IC50 (SiHa (Ovary), read-out: IC50 [M] (ProliFiler-140)): 1.11e-07 M and 1.1e-07 M
Reductive Activation Index (T84 (Colon)): 5.12 and 5.1
IC50 (T84 (Colon), read-out: IC50 [M] (ProliFiler-140)): 1.77e-07 M and 1.8e-07 M
IC50 (T98G (Brain), read-out: IC50 [M] (ProliFiler-140)): 8.64e-08 M and 8.6e-08 M
Reductive Activation Index (T-47D (Breast)): 4.5
IC50 (T-47D (Breast), read-out: IC50 [M] (ProliFiler-140)): 2.3e-07 M and 2.31e-07 M
IC50 (T-47D, read-out: IC50): 2.3e-07 M
Reductive Activation Index (U2OS (Bone)): 5.36
IC50 (U2OS (Bone), read-out: IC50 [M] (ProliFiler-140)): 2.44e-08 M and 2.4e-08 M
Reductive Activation Index (U87MG (Brain)): 5.4
IC50 (U87MG (Brain), read-out: IC50 [M] (ProliFiler-140)): 2.3e-07 M and 2.25e-07 M
Reductive Activation Index (U118MG (Brain)): 2.81
IC50 (U118MG (Brain), read-out: IC50 [M] (ProliFiler-140)): 1.4e-07 M
Reductive Activation Index (U251MG (Brain)): 11
IC50 (U251MG (Brain), read-out: IC50 [M] (ProliFiler-140)): 1.9e-07 M and 1.88e-07 M
IC50 (U-266 (Blood), read-out: IC50 [M] (ProliFiler-140)): 2.23e-08 M and 2.2e-08 M
Reductive Activation Index (U-937 (Blood)): 4.50
IC50 (U-937 (Blood), read-out: IC50 [M] (ProliFiler-140)): 1.64e-08 M and 1.6e-08 M
Reductive Activation Index (ZR-75-1 (Breast)): 6.4
IC50 (ZR-75-1 (Breast), read-out: IC50 [M] (ProliFiler-140)): 2.22e-07 M and 2.2e-07 M
IC50 (read-out: IC50 [M] (ProliFiler-140)): 1.74e-08 M and 1.7e-08 M
